Source: publication PMC10306345 (Journal of medicinal chemistry, 2013)
Like-named read-outs stand apart in the source and are kept apart here.

What was measured:
[1] = test system: recombinant VACV (vL1Ri) EGFP under synthetic early/late promoter; format: cell-based, vaccinia virus
[2] = test system: E9/A20/D4 dependent in vitro DNA synthesis; settings: cited from earlier work
vaccinia virus (VACV) = test: microbe, parasite or virus in culture; format: cell-based; settings: for IC50: Orthopoxvirus vaccinia
A4 protein = format: cell-based, vaccinia virus
E3 protein = format: cell-based, vaccinia virus
[3] = test system: VACV viral factories in BSC-1 cells; format: cell-based, vaccinia virus

Compound	antiviral activity (in words) (vaccinia virus (VACV))	further results
Nc1ccn(C[C@@H](CO)OCP(=O)(O)O)c(=O)n1.O.O [CDV, cidofovir, reference compound]		EGFP expression [1]: equally effective; EGFP expression, treatment post vL1Ri adsorption [1]: comparable EGFP expression and CPE to DMSO vehicle
Cc1ccc2c(Sc3ccc(Cl)cc3)c(C(=O)O)[nH]c2c1 [Compound 1, 3-((4-Chlorophenyl)thio)-6-methyl-1H-indole-2-carboxylic acid]		inhibition of in vitro DNA synthesis [2]: ability to inhibit in vitro DNA synthesis
O=C(O)c1[nH]c2ccccc2c1Sc1ccc(Cl)cc1 [Compound 1d]	loss of activity	
COc1cccc2[nH]c(C(=O)O)c(Sc3ccc(Cl)cc3)c12 [Compound 1i]	loss of activity	
Cc1ccc2c(c1)c(Sc1ccc(Cl)cc1)c(C(=O)O)n2C [Compound 2]	loss	
CCn1c(C(=O)O)c(Sc2ccc(Cl)cc2)c2cc(C)ccc21 [Compound 3]	no gain in activities	
COC(=O)c1[nH]c2cc(C)ccc2c1Sc1ccc(Cl)cc1 [Compound 6]		fold improvement in antiviral potency over parent 1 (vaccinia virus (VACV)): ~ 4 fold
COC(=O)c1[nH]c2ccc(C)cc2c1Sc1ccc(Cl)cc1 [Compound 7]	lost activity	
COC(=O)c1[nH]c2c(C)cccc2c1Sc1ccc(Cl)cc1 [Compound 8]		fold improvement in antiviral potency over parent 1 (vaccinia virus (VACV)): ~ 4 fold
COC(=O)c1[nH]c2cccc(C)c2c1Sc1ccc(Cl)cc1 [Compound 9]		fold improvement in antiviral potency over parent 1 (vaccinia virus (VACV)): ~ 4 fold
Cc1ccc2c(Sc3ccccc3)c(C(=O)O)[nH]c2c1 [Compound 18]	abolished its antiviral activity	
Cc1ccc2c(Sc3cccc(F)c3)c(C(=O)O)[nH]c2c1 [Compound 18b]		IC50 (vaccinia virus (VACV); read-out: IC50 (antiviral activity, Table 2)): 56 µM
Cc1ccc2c(Sc3ccc(Br)cc3)c(C(=O)O)[nH]c2c1 [Compound 18c]	loss of activity	
Cc1ccc(Sc2c(C(=O)O)[nH]c3cc(C)ccc23)cc1 [Compound 18d]	failed to show antiviral activities	
COc1ccc(Sc2c(C(=O)O)[nH]c3cc(C)ccc23)cc1 [Compound 18e]	failed to show antiviral activities	
Cc1ccc2c(Sc3ccc(C(=O)O)cc3)c(C(=O)O)[nH]c2c1 [Compound 18f]	loss of activity	
COc1ccc(Sc2c(C(=O)O)[nH]c3cccc(C)c23)cc1 [Compound 19]	failed to show antiviral activities	
Cc1ccc(Sc2c(C(=O)O)[nH]c3cccc(C)c23)cc1 [Compound 19a]	failed to show antiviral activities	
COC(=O)c1ccc(Sc2c(C(=O)O)[nH]c3cccc(C)c23)cc1 [Compound 19b]	failed to show antiviral activities	
Cc1cccc2[nH]c(C(=O)O)c(Sc3ccc([N+](=O)[O-])cc3)c12 [Compound 19c]	loss of activity	
Cc1ccc2c(Sc3cc(Cl)cc(Cl)c3)c(CCC(N)=O)[nH]c2c1 [Compound 24a, 3-(3-((3,5-Dichlorophenyl)thio)-6-methyl-1H-indol-2-yl)propanamide]		EGFP expression [1]: significantly reduced; EGFP expression, treatment post vL1Ri adsorption [1]: appreciable EGFP expression; cytopathic effect (CPE) [1]: lowered; A4 late protein level (A4 protein): dramatically reduced in a dose-dependent manner; E3 early protein level (E3 protein): slight decrease; BrdU labeling of viral factories [3]: significantly suppressed
Cc1ccc2c(Sc3cc(Cl)cc(Cl)c3)c(CCCC(N)=O)[nH]c2c1 [Compound 24c, 4-(3-((3,5-Dichlorophenyl)thio)-6-methyl-1H-indol-2-yl)butanamide]		fold decrease in antiviral potency (vaccinia virus (VACV)): ~ 5 fold
Cc1ccc2c(Sc3cc(Cl)cc(Cl)c3)c(CCC(=O)O)[nH]c2c1 [Compound 24d, 3-(3-((3,5-Dichlorophenyl)thio)-6-methyl-1H-indol-2-yl)propanoic acid]		fold decrease in antiviral potency (vaccinia virus (VACV)): ~ 5 fold
CCCCCCNC(=O)CCc1[nH]c2cc(C)ccc2c1Sc1cc(Cl)cc(Cl)c1 [Compound 24e, 3-(3-((3,5-Dichlorophenyl)thio)-6-methyl-1H-indol-2-yl)-N-hexylpropanamide]	loss of activity	
COC(=O)c1[nH]c2cc(C)ccc2c1Sc1cc(Cl)cc(Cl)c1 [Compound 27]	loss of activity	
CNC(=O)c1[nH]c2cc(C)ccc2c1Sc1cc(Cl)cc(Cl)c1 [Compound 28]	loss of activity	
Cc1ccc2c(Sc3cc(Cl)c(Cl)cc3Cl)c(C(=O)O)[nH]c2c1 [Compound 30]		IC50 (vaccinia virus (VACV); read-out: IC50 (antiviral activity, Table 3)): 21 µM
Cc1ccc2c(Sc3ccc(C(F)(F)F)cc3[N+](=O)[O-])c(C(=O)O)[nH]c2c1 [Compound 31]	loss of activity	
